Laboratory results published in ChEMBL document CHEMBL1201862, “PubChem BioAssay data set” (2004).
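All cell lines were grown in 96-well plates and treated with compound for 48 hours. GI50 marks 50% less growth.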 Active and inactive are the calls of the source. Rule as the data show it: active = GI50 up to about 1.1 µM and inactive = higher.

Columns and labels:
Test in all cases: NCI anticancer screen, dose series, 48 h
786-0 = tested on: 786-0
BT-549 = tested on: BT-549
CAKI-1 = tested on: CAKI-1
CCRF-CEM = tested on: CCRF-CEM
HCT-15 = tested on: HCT-15
HOP-62 = tested on: HOP-62
HOP-92 = tested on: HOP-92
Hs-578T = tested on: Hs-578T
K562 = tested on: K562
Malme-3M = tested on: Malme-3M
NCI-H522 = tested on: NCI-H522
OVCAR-4 = tested on: OVCAR-4
OVCAR-5 = tested on: OVCAR-5
RPMI-8226 = tested on: RPMI-8226
RXF 393 = tested on: RXF 393
SK-MEL-28 = tested on: SK-MEL-28
SR = tested on: SR
T47D = tested on: T47D
TK-10 = tested on: TK-10

SMILES	GI50 (786-0)	GI50 (BT-549)	GI50 (CAKI-1)	GI50 (CCRF-CEM)	GI50 (HCT-15) [µM]	GI50 (HOP-62)	GI50 (HOP-92)	GI50 (Hs-578T)	GI50 (K562)	GI50 (Malme-3M)	GI50 (NCI-H522)	GI50 (OVCAR-4)	GI50 (OVCAR-5)	GI50 (RPMI-8226)	GI50 (RXF 393)	GI50 (SK-MEL-28)	GI50 (SR)	GI50 (T47D)	GI50 (TK-10)
Cc1sc2nc3n(c(=O)c2c1C)N=C(c1ccccc1)CS3	47.5 µM (inactive)	> 100 µM (inactive)	> 100 µM (inactive)	> 100 µM (inactive)	> 100	48.3 µM (inactive)	> 100 µM (inactive)	37.5 µM (inactive)	> 100 µM (inactive)	> 100 µM (inactive)	> 100 µM (inactive)	> 100 µM (inactive)	> 100 µM (inactive)	> 100 µM (inactive)	> 100 µM (inactive)	> 100 µM (inactive)	> 100 µM (inactive)	> 100 µM (inactive)	> 100 µM (inactive)
O=c1c(Br)c(-c2ccccc2)[s+]([O-])c2ccccc12 (stereo not drawn)	2.7 µM (inactive)	17.9 µM (inactive)	9.12 µM (inactive)	0.861 µM (active)	3.32	2.43 µM (inactive)	10.5 µM (inactive)	25.1 µM (inactive)	2.74 µM (inactive)	10.4 µM (inactive)	1.68 µM (inactive)	1.59 µM (inactive)	21.5 µM (inactive)	1.61 µM (inactive)	12.2 µM (inactive)	13 µM (inactive)	2.06 µM (inactive)	2.8 µM (inactive)	18.2 µM (inactive)
CCC1(C)NC(c2cnccn2)=NN1c1ccc(Cl)cc1 (stereo not drawn)	73.8 µM (inactive)	> 100 µM (inactive)	> 100 µM (inactive)	18.7 µM (inactive)	> 100	> 100 µM (inactive)	> 100 µM (inactive)	> 100 µM (inactive)	39.3 µM (inactive)	41.9 µM (inactive)	> 100 µM (inactive)	63.2 µM (inactive)	> 100 µM (inactive)	30 µM (inactive)	41.7 µM (inactive)	> 100 µM (inactive)	22.1 µM (inactive)	15.5 µM (inactive)	70.3 µM (inactive)
CC(C)=CC[C@]12CCN(C)[C@H]1N(S(=O)(=O)c1ccccc1)c1ccccc12	42.3 µM (inactive)	> 56.5 µM (inactive)	> 25.6 µM (inactive)	> 50.7 µM (inactive)	> 47.2	> 45.4 µM (inactive)	3.38 µM (inactive)	> 45.4 µM (inactive)	> 43.2 µM (inactive)	> 49.2 µM (inactive)	15.8 µM (inactive)	43.6 µM (inactive)	> 59.8 µM (inactive)	29.9 µM (inactive)	> 38.3 µM (inactive)	> 64.6 µM (inactive)	20.7 µM (inactive)	9.73 µM (inactive)	> 55.5 µM (inactive)
CC1OC(OC2C(O)C(O)C(O)C(O)C2O)C(N)CC1NC(=N)C(=O)O (stereo not drawn)	> 100 µM (inactive)	> 100 µM (inactive)	> 100 µM (inactive)	> 100 µM (inactive)	> 100	> 100 µM (inactive)	> 100 µM (inactive)	> 100 µM (inactive)	> 100 µM (inactive)	> 100 µM (inactive)	> 100 µM (inactive)	> 100 µM (inactive)	> 100 µM (inactive)	> 100 µM (inactive)	> 100 µM (inactive)	> 100 µM (inactive)	> 100 µM (inactive)	> 100 µM (inactive)	> 100 µM (inactive)
N#Cc1nc(C2CC2)oc1N	> 100 µM (inactive)	> 100 µM (inactive)	> 100 µM (inactive)	38.4 µM (inactive)	> 100	> 100 µM (inactive)	> 100 µM (inactive)	> 100 µM (inactive)	> 100 µM (inactive)	94.4 µM (inactive)	25.2 µM (inactive)	> 100 µM (inactive)	> 100 µM (inactive)	> 100 µM (inactive)	> 100 µM (inactive)	> 100 µM (inactive)	> 100 µM (inactive)	> 100 µM (inactive)	> 100 µM (inactive)
CCCc1cc(=O)oc2c(C=O)c(O)cc(O)c12	30.1 µM (inactive)	25.1 µM (inactive)	27 µM (inactive)	22.8 µM (inactive)	26.4	22.3 µM (inactive)	18.7 µM (inactive)	22.6 µM (inactive)	57.4 µM (inactive)	18.5 µM (inactive)	15.1 µM (inactive)	25.8 µM (inactive)	26.7 µM (inactive)	28 µM (inactive)	24 µM (inactive)	23.2 µM (inactive)	27.8 µM (inactive)	23.1 µM (inactive)	> 100 µM (inactive)
